# Laboratory results: publication PMC8119466, “A screen of FDA-approved drugs identifies inhibitors of protein tyrosine phosphatase 4A3 (PTP4A3 or PRL-3)” (Scientific Reports, 2021)
# Structures can show the parent of a compound that is named as a salt. Where two headings read alike, the source gives them in different places.
# Experiments:
# Type in all cases: biochemical
# recombinant PRL-2 = molecular target: T1, recombinant PRL-2 (Homo sapiens, UniProt Q12974); test: In vitro phosphatase assay (DiFMUP hydrolysis), PRL-2;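 note: PRL-2 activity read as DiFMUP hydrolysis after 20 min at room temperature with drug, enzyme first pre-reduced at 4 °C for 20 min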
# T1 construct: 6xHis (N, cleaved yes); made in house; host or cells: E. coli One Shot BL21 Star
# T1 sequence (Q12974 1-167): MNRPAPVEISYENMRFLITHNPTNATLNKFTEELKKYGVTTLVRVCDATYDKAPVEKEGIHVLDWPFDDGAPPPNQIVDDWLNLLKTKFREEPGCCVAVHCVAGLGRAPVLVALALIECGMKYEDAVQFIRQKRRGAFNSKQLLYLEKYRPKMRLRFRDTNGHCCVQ
# recombinant PRL-1 = molecular target: T2, recombinant PRL-1 (Homo sapiens, UniProt Q93096); test: In vitro phosphatase assay (DiFMUP hydrolysis), PRL-1; note: test concentration or dose not given here
# T2 construct: 6xHis (N, cleaved yes); made in house; host or cells: E. coli One Shot BL21 Star
# T2 sequence (Q93096 1-173): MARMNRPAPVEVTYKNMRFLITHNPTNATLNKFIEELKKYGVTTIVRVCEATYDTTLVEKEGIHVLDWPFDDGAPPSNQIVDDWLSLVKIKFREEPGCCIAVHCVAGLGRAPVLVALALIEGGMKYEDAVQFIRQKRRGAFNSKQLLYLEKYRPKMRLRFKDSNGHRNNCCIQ
# recombinant PRL-3 = molecular target: T3, recombinant PRL-3 (Homo sapiens, UniProt O75365); test: In vitro phosphatase assay (DiFMUP hydrolysis), PRL-3; note: test concentration or dose not given here
# T3 construct: 6xHis (N, cleaved yes); made in house; host or cells: E. coli One Shot BL21 Star
# T3 sequence (O75365 whole entry): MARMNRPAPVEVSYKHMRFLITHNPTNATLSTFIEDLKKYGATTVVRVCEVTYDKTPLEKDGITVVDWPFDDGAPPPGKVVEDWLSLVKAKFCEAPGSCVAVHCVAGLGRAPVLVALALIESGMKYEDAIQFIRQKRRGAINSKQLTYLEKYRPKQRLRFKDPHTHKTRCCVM
# [1] = FDA-approved drug screen, compared to DMSO
SMILES,% Phosphatase Activity (compared to DMSO) PRL-2 (recombinant PRL-2; [1]) [%],% Phosphatase Activity (compared to DMSO) PRL-1 (recombinant PRL-1; [1]) [%],% Phosphatase Activity (compared to DMSO) PRL-3 (recombinant PRL-3; [1]) [%],% Phosphatase Activity (compared to DMSO) PRL-2 (recombinant PRL-2) [%],% Phosphatase Activity (compared to DMSO) PRL-1 (recombinant PRL-1) [%],% Phosphatase Activity (compared to DMSO) PRL-3 (recombinant PRL-3) [%]
CC(C)OC(=O)C(C)(C)Oc1ccc(C(=O)c2ccc(Cl)cc2)cc1 [Fenofibrate],89,88,101,–,–,–
CS(=O)(=O)O.Oc1ccc(C2CNCCc3c2cc(O)c(O)c3Cl)cc1 (stereo not drawn) [Fenoldopam (mesylate)],102,108,96,–,–,–
CC(C(=O)[O-])c1cccc(Oc2ccccc2)c1.CC(C(=O)[O-])c1cccc(Oc2ccccc2)c1.[Ca+2] (stereo not drawn) [Fenoprofen Calcium],80,82,95,–,–,–
CC(C)(C(=O)O)c1ccc(C(O)CCCN2CCC(C(O)(c3ccccc3)c3ccccc3)CC2)cc1 (stereo not drawn) [Fexofenadine HCl],–,–,–,92,109,89
CCc1c(Cl)c(O)c(Cl)c(O)c1C(=O)O[C@H]1[C@H](O)[C@H](OC)[C@H](OC/C2=C\C=C\C[C@H](O)/C(C)=C/[C@H](CC)[C@@H](O[C@@H]3OC(C)(C)[C@@H](OC(=O)C(C)C)[C@H](O)[C@@H]3O)/C(C)=C/C(C)=C/C[C@@H]([C@@H](C)O)OC2=O)O[C@@H]1C [Fidaxomicin],63,85,62,–,–,–
CC(C)(C)NC(=O)[C@H]1CC[C@H]2[C@@H]3CC[C@H]4NC(=O)C=C[C@]4(C)[C@H]3CC[C@]12C [Finasteride],87,93,81,–,–,–
CN1CC[C@H](c2c(O)cc(O)c3c(=O)cc(-c4ccccc4Cl)oc23)[C@H](O)C1 [Flavopiridol (Alvocidib)],82,92,68,–,–,–
Cc1c(-c2ccccc2)oc2c(C(=O)OCCN3CCCCC3)cccc2c1=O [Flavoxate HCl],109,103,113,–,–,–

# More lines, main results first:
% Phosphatase Activity (compared to DMSO) PRL-2 (recombinant PRL-2; [1]) [%],% Phosphatase Activity (compared to DMSO) PRL-1 (recombinant PRL-1; [1]) [%],% Phosphatase Activity (compared to DMSO) PRL-3 (recombinant PRL-3; [1]) [%],SMILES,% Phosphatase Activity (compared to DMSO) PRL-2 (recombinant PRL-2) [%],% Phosphatase Activity (compared to DMSO) PRL-1 (recombinant PRL-1) [%],% Phosphatase Activity (compared to DMSO) PRL-3 (recombinant PRL-3) [%]
122,104,109,CC(C)(Oc1ccc(C(=O)c2ccc(Cl)cc2)cc1)C(=O)O [Fenofibric acid],–,–,–
101,90,104,O=C1NCC2(CCN(CCc3ccccc3)CC2)O1 [Fenspiride HCl],–,–,–
117,107,110,Clc1ccc(C(Cn2ccnc2)OCc2ccc(Sc3ccccc3)cc2)c(Cl)c1 (stereo not drawn) [Fenticonazole Nitrate],–,–,–
100,89,95,CC(C)C(=O)Oc1ccc(CO)cc1[C@H](CCN(C(C)C)C(C)C)c1ccccc1 [Fesoterodine Fumarate],–,–,–
81,102,92,O=C(Nc1nc2cccc(-c3ccc(CN4CCS(=O)(=O)CC4)cc3)n2n1)C1CC1 [Filgotinib (GLPG0634)],–,–,–
95,104,116,CCCCCCCCc1ccc(CCC(N)(CO)CO)cc1.Cl [Fingolimod (FTY720) HCl],–,–,–
111,100,75,CS(=O)(=O)c1ccc([C@@H](O)[C@@H](CF)NC(=O)C(Cl)Cl)cc1 [Florfenicol],–,–,–
100,93,70,O=c1[nH]c(=O)n([C@H]2C[C@H](O)[C@@H](CO)O2)cc1F [Floxuridine],–,–,–
